Laboratory results taken from paper PMC9545129 (Chemmedchem, 2022).

Experiments:
LAT1 = conditions: cited from earlier work
LAT1 (SLC7A5) = LAT1 (SLC7A5) (Homo sapiens, UniProt Q01650); experiment: [3H]-L-leucine efflux assay in preloaded HT-29 cells; format: cell-based; conditions: concentration not stated
LAT1 (SLC7A5), sequence (Q01650 whole entry): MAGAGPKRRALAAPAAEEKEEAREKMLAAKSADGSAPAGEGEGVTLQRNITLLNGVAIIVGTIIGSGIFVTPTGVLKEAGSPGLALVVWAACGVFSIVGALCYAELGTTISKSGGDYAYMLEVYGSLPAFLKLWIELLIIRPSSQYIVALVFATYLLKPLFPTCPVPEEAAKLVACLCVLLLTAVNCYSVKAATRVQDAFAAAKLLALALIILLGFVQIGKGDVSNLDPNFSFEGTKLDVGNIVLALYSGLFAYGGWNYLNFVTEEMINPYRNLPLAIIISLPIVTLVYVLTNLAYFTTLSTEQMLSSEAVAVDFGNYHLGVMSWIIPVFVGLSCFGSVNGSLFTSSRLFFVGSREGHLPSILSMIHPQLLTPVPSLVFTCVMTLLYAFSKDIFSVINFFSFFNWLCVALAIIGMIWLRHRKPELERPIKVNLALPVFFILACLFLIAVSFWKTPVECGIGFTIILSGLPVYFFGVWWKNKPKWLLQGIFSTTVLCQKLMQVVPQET
LAT1 (SLC7A5), sequence (P08195 102-630 partner): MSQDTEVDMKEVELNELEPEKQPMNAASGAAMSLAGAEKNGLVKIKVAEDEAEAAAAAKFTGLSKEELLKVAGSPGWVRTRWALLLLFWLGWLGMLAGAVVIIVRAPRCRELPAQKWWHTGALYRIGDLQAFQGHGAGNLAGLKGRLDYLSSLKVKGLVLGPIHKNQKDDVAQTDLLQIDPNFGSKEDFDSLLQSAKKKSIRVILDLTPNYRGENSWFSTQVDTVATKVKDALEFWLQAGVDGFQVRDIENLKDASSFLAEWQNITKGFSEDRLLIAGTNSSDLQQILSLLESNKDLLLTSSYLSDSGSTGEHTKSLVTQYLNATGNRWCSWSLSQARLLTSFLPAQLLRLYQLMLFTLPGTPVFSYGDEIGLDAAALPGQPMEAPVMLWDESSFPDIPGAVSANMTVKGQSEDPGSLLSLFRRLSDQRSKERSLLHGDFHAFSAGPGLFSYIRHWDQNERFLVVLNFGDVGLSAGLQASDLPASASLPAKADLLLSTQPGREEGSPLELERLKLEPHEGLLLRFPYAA

SMILES | LAT1 substrate properties (LAT1) | [3H]-L-leucine efflux from preloaded HT-29 cells / substrate for LAT1-mediated transport (LAT1 (SLC7A5))
N[C@@H](Cc1c[nH]c2ccc(OCCF)cc12)C(=O)O [5‐(2‐fluoroethoxy)‐L‐tryptophan] | exhibit LAT1 substrate properties | –
N[C@@H](Cc1c[nH]c2ccccc12)C(=O)O [L‐Trp, L‐tryptophan] | – | elicited clear [^3H]‐L‐leucine efflux
